Experiments:
[1] = target: histone deacetylase (chicken liver S100 lysate); test: Competitive binding assay with 3H-N-desmethoxyapicidin, chick liver S100 lysate; conditions: for IC50: displacement of 3H-N-desmethoxyapicidin, chick liver S100
Protocol: Chick Liver. Livers from 3-5 three week old chickens are collected, rinsed in ice cold phosphate buffered saline (pH 7.4), diced into small pieces and rinsed again 3-4 times with ice cold 50 mM N-2-hydroxyethylpiperazine-N'-2-ethanesulfonic acid (HEPES) (pH 7.4) containing 0.1 mM phenylmethanesulfonyl fluoride (PMSF). The tissue is then resuspended in HEPES buffer, homogenized in a polytron homogenizer and centrifuged at 3000×g for 10 min. The supernatant is then subjected to an additional 100,000 g centifugation for 1 hour. The pellet and the floating layer of lipid are discarded and the supernatant, referred to as the chick liver S100 fraction, is retained for binding assays. After estimating the protein concentration, the supernatant (S100) is aliquoted and frozen at -80° C.
(§1) Each assay tube contains a final volume of 1 ml with 1.3 ng/ml of ^3 H-N-desmethoxyapicidin, 150-200 μg of the appropriate S100 supernatant and concentrations of potential HDA inhibitors from 0.001-10 μg/ml.
(§2) (i) labeled substrate. 2-^3 H-N-desmethoxyapicidin (18.69 mCi/mg) is diluted 1:100 in ethanol, and 2 μl added per 1 ml of 50 mM HEPES pH 7.4 with 0.05% Triton®-X100 (HEPES/Triton) is added. This provides 1.3 ng 2-^3 H-N-desmethoxyapicidin /ml of assay (54,000 DPM/ml.)
(§3) (ii) potential HDA inhibitors. The stocks of the test compounds are made up to 2 mg/ml dimethylsulfoxide (DMSO). The stock solution is diluted to 1000, 100, 10, 1 and 0.1 μg/ml in ethanol where a full titration is required. Ethanol is used as a negative control, a 100 μg/ml solution of unlabeled N-desmethoxyapicidin is used as a positive control. Six μl of the test compound solution, the positive and negative controls are used for the assay.
(§4) (iii) supernatant from (a). The S100 sample is diluted to a concentration of 3.0 mg protein/ml (chick liver) or 4 mg protein/ml (parasite) in the HEPES/Triton® buffer. Fifty μl is used for the assay.
(§5) Stock solutions of potential HDA inhibitors (ii) are diluted into 50 mM HEPES/Triton® buffer to achieve a final concentration of test compound in the range of […]. ^3 H-N-desmethoxyapicidin is added to a final concentration of 1.3 ng/ml. 50 μl of parasite or chick liver S100 solution (150-200 μg) is added to each tube. The assay mixture is incubated for 1 hr at 25° C. and then aspirated through Whatman GF/B filters impregnated with polyethylenimine (filters prepared in advance by soaking in 2 ml of polyethylenimine per 330 mls water at room temp for 1 hour). Assay tubes were rinsed 3 times with 1-2 mls of HEPES/Triton® and aspirated through the same filter. The filter is then dried and counted in scintillant.

[2] = system: histone deacetylase (E. tenella oocyst S100 lysate); test: Competitive binding assay with 3H-N-desmethoxyapicidin, E. tenella S100 lysate; conditions: for selectivity for E. tenella over chicken liver lysate in binding assay: E. tenella versus host (chicken liver) lysate
Protocol: E. tenella oocysts. Approximately 2×10^9 E. Tenella oocysts are suspended in 5 ml of PBS/0.1 mM PMSF, 4 mls of an equal mixture (vol/vol) of 4.0 and 1.0 mm glass beads is added. The glass bead-oocyst mixture is then shaken for 20 minutes to cause disruption of the oocysts. The efficiency of breakage is checked microscopically. The resulting homogenate is separated from the glass beads and centrifuged at 3000×g for 10 min. The supernatant is then subjected to an additional centrifugation at 100,000 g for 1 hr. The pellet is discarded and the supernatant, referred to as the E. Tenella S100 fraction, is retained for binding assays. After estimating the protein concentration, the supernatant (S100) is aliquoted and frozen at -80° C.
as §1, §2, §3, §4, §5

HeLa cell histones = test: Histone acetylation state in HeLa cells (AUT gel electrophoresis); type: cell-based, human; conditions: HeLa cells treated 4 hrs, FIG. 1, relative to untreated cells
Protocol: About 2×10^7 HeLa cells growing at 37 C were treated with various compounds in the standard tissue culture medium (MEM containing 10% fetal calf serum) for 4 hrs. Cells were then removed from the flask by scraping in PBS in a total volume of about 10 mls. The cells were washed twice in PBS and resuspended in about 3 mls lysis buffer (Lysis buffer; 0.45% Nonidet® P-40, 10 mM tris, 10 mM NaCl, 5 mM MgCl, 0.1 mM EGTA, 0.1 mM PMSF). The suspension was mixed by vortexing for 10 seconds, incubated on ice for 15 minutes and nuclei were pelleted by centrifugation through a 1 ml cushion of 30% sucrose in lysis buffer at 1300×g for 10 minutes. The supernatant was discarded and the nuclei were then resuspended in 1.0 ml water. H2 SO4 was added to a final concentration of 0.4M and the nuclear suspension was incubated on ice for 30 min. and then pelleted by centrifugation at 13,000×g for 10 miunutes. […]
Acid urea triton (AUT) polyacrylarnide gels were performed according to the methods of Alfageme et al (1974) J. Biol. Chem. 249, 3729, with modifications as described in Lennox and Cohen (Methods in Enzymology, 170, 532-549). […] Gels were either stained with Coomassie Brilliant Blue R in 7% acetic acid, 20% methanol and then destained in 7% acetic acid and 20% methanol, or treated with Enlightening (from New England Nuclear), dried and radiolabel detected by fluorography.

P. falciparum histones = test: Histone acetylation state in P. falciparum (14C acetate labeling, AUT gel); type: cell-based, Plasmodium falciparum; conditions: infected red blood cells, 14C sodium acetate, 2 hours, FIG. 2
Protocol: Acid urea triton (AUT) polyacrylarnide gels were performed according to the methods of Alfageme et al (1974) J. Biol. Chem. 249, 3729, with modifications as described in Lennox and Cohen (Methods in Enzymology, 170, 532-549). For optimal resolution of HeLa cell and Plasmodium falciparum histones the separation gel contained 7.5M urea, 12% acrylamide, 0.38% Triton® X 100, 0.08% bis acrylamide, and 0.87M acetic acid. The loading gels contained 7.5M urea, 0.37% Triton® X 100, 6% acrylamide, 0.04% bis acrylamide and 0.87M acetic acid. Gels were run in 1M acetic acid. Gels were pre-electrophoresed at 350V for 1 hour and run at 450 V for 3.5 hours. Gels were either stained with Coomassie Brilliant Blue R in 7% acetic acid, 20% methanol and then destained in 7% acetic acid and 20% methanol, or treated with Enlightening (from New England Nuclear), dried and radiolabel detected by fluorography.
Approximately 1×10^9 P. falciparum infected red blood cells (about 60% parasitized) were resuspended in 10 ml of RPMI 1640 containing various concentrations of test compounds and 250 μCi^14 C sodium acetate and incubated at 37° C. for 2 hours. The cells were then washed 3 time with PBS and histones were prepared as described below.
Histones were prepared according to the method of Cary et al (1994) Parasitology Research, 80, 255-258. […]

E. tenella = test: In vitro antiparasitic activity against E. tenella; type: cell-based, Eimeria tenella
Source text: ^(1) Generally following the procedure described in Crane, Schmatz, Stevens, Habbersett and Murray. Eimeria tenella: in vitro development in irradiated bovine kidney cells.(1984) Parasitology 88: 521-530.

P. falciparum = test: In vitro antiparasitic activity against P. falciparum; type: cell-based, Plasmodium falciparum
Source text: ^(2) Generally following the procedure described in Desjardins et al, "Quantitative Assessment of Antimalarial Activity In Vitro by a Semiautomated Microdilution Technique" Antimicrobial Agents and Chemotherapy, 1979, 16:710-718.

[3] = system: histone deacetylase (chicken liver extracts); test: Histone deacetylase inhibition assay (Assay 1), chicken liver extract; type: biochemical
Protocol: (§6) The standard assay contained in a total volume of 40 μL: 400 nmol HEPES-sodium, pH 7.4, 100 pmol of the substrate [AcGly-Ala-Lys(ε-^14 C-Ac)-Arg-His-Arg-Lys(ε-^14 C-Ac)-ValNH2 ] (see Kervabon et al (1979) FEBS Letters 106: 93-96) having a specific activity of approx. 114 mCi/mmol, and a source of histone deacetylase (HDAase) activity. The amount of HDAase added was chosen such that ≤20% of the substrate was consumed during the assay. The reaction was initiated by enzyme addition and allowed to proceed for 60 min at 41°. At 60 min, the reaction was terminated by the addition of a 50% slurry of Amberlite AG 50 W×4 cation exchange resin, sodium form (200-400 mesh) in 25 mM sodium acetate buffer, pH 4.2 (200 μL). The resin binds both remaining substrate and the (partially) deacetylated peptidyl products. The quenched reaction was then incubated for at least 30 min at 25° with occassional mixing, diluted with additional 25 mM sodium acetate buffer, pH 4.2 (760 μL; final volume 1000 μL), incubated for a minimum of an additional 30 min at 25° with occassional mixing, and then centrifuged at 10,000×g for 1 min. An aliquot of the supernatant (800 μL) containing the enzymatically released ^14 C-acetate was removed, mixed with Aquasol 2 liquid scintillation counter (LSC) cocktail (10 mL), and counted in a Beckman model LS-5801 LSC. […]

[4] = system: Eimeria HDAase (histone deacetylase); test: Histone deacetylase inhibition assay (Assay 1), E. tenella extract; type: biochemical, Eimeria tenella
Protocol: as §6

| SMILES | IC50 [1] [nM] | selectivity for E. tenella over chicken liver lysate in binding assay [2] | hyperacetylation of HeLa cell histones (shift in histone gel profile) (HeLa cell histones) | hyperacetylation of P. falciparum histones (P. falciparum histones) | further results |
| --- | --- | --- | --- | --- | --- |
| CCC(=O)CCCCC[C@@H]1NC(=O)[C@H]2CCCCN2C(=O)[C@H](C(C)CC)NC(=O)[C@H](c2c[nH]c3ccccc3c2=O)NC1=O (stereo partly shown) [Compound IIB] | > 1000 | selective |  |  |  |
| CC(/C=C/C(=O)NO)=C\[C@@H](C)C(=O)c1ccc(N(C)C)cc1 [trichostatin] |  |  | cause a distinct shift in the histone gel profiles | cause hyperacetylation |  |
| CCC(=O)CCCCC[C@@H]1NC(=O)[C@H]2CCCCN2C(=O)[C@H](C(C)CC)NC(=O)[C@H](c2cn(OC)c3ccccc3c2=O)NC1=O (stereo partly shown) [Compound IIA] | > 1000 | selective |  |  |  |
| CC(/C=C/C(=O)O)=C\[C@@H](C)C(=O)c1ccc(N(C)C)cc1 [trichostatic acid] | > 1000 |  |  |  | activity in binding assay (in words), chicken liver lysate [1]: no activity; activity against E. tenella (in words) (E. tenella): not active; activity against P. falciparum (in words) (P. falciparum): not active; activity in enzyme inhibition assay (in words), chicken liver extract [3]: inactive; activity in enzyme inhibition assay (in words), E. tenella extract [4]: inactive; activity in binding assay (in words), E. tenella lysate [2]: no activity; IC50 ([2]; displacement of 3H-N-desmethoxyapicidin, E. tenella S100): > 1000 nM |
| CCC(=O)CCCCC[C@@H]1NC(=O)[C@H]2CCCCN2C(=O)[C@H]([C@@H](C)CC)NC(=O)[C@H](Cc2cn(OC)c3ccccc23)NC1=O [Compound Ia, Apicidin] |  |  | cause a distinct shift in the histone gel profiles | cause hyperacetylation |  |

— patent US6068987A, “Histone deacetylase as target for antiprotozoal agents” (Merck & Co., Inc., priority 1999, dated 2000)
